pIC50: −log10 of the molar value.
Each compound was assayed against GMPPNP-loaded KRAS G12C (Homo sapiens, UniProt P01116, G12C) (assay: KRAS G12C RAF Disruption Assay (HTRF)). Details: recombinant GMPPNP-loaded KRAS G12C (5 nM), 20 min with compound; GST-RAF1 RBD (9 nM); HTRF signal; read-out: KRASG12C RAF Disruption Assay (IC50).
Assay type: biochemical
Procedure, shortened: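 The read-out is an HTRF 520/495 emission ratio, with IC50 taken from dose-response curves. Compound was first incubated for 20 min at room temperature with active-state KRAS G12C (GMPPNP, 5 nM) in Tris pH 7.5/NaCl/MgCl2/DTT/BSA. RAF1 RBD-GST (9 nM, 20 min) and SA-Tb (0.25 nM, 3 h) were added in turn.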

Compound	pIC50
Cn1ncc2cccc(-c3ncc4c(N5CCN(C(=O)/C(F)=C/c6ccccn6)CC5)nc(OC[C@@]56CCCN5C[C@H](F)C6)nc4c3F)c21 [Example 38, (Z)-2-fluoro-1-(4-(8-fluoro-2-(((2R, 7aS)-2-fluorotetrahydro-1H-pyrrolizin-7a(5H)-yl)methoxy)-7-(1-methyl-1H-indazol-7-yl)pyrido[4,3-d]pyrimidin-4-yl)piperazin-1-yl)-3-(pyridin-2-yl)prop-2-en-1-one]	5.33
CN1CCC[C@H]1COc1nc(N2CCN(C(=O)/C(F)=C/c3ncccn3)[C@@H](CC#N)C2)c2cnc(-c3cccc4cccc(Cl)c34)c(F)c2n1 [Compound 20, 2-((S)-4-(7-(8-chloronaphthalen-1-yl)-8-fluoro-2-(((S)-1-methylpyrrolidin-2-yl)methoxy)pyrido[4,3-d]pyrimidin-4-yl)-1-((Z)-2-fluoro-3-(pyrimidin-2-yl)acryloyl)piperazin-2-yl)acetonitrile]	7.05
N#Cc1c(N)sc2c(F)ccc(-c3ncc4c(N5CCN(C(=O)/C(F)=C/c6ccccn6)CC5)nc(OC[C@@]56CCCN5C[C@H](F)C6)nc4c3F)c12 [Compound 121, 2-amino-7-fluoro-4-(8-fluoro-4-(4-((Z)-2-fluoro-3-(pyridin-2-yl)acryloyl)piperazin-1-yl)-2-(((7aS)-2-fluorotetrahydro-1H-pyrrolizin-7a(5H)-yl)methoxy)pyrido[4,3-d]pyrimidin-7-yl)benzo[b]thiophene-3-carbonitrile]	8.10
C#Cc1cccc2cccc(-c3nc(OC)c4c(N5CCN(C(=O)/C(F)=C/c6ccccn6)CC5)nc(OC[C@@]56CCCN5C[C@H](F)C6)nc4c3F)c12 [Compound 109, (Z)-1-(4-(7-(8-ethynylnaphthalen-1-yl)-8-fluoro-2-(((2R, 7aS)-2-fluorotetrahydro-1H-pyrrolizin-7a(5H)-yl)methoxy)-5-methoxypyrido[4,3-d]pyrimidin-4-yl)piperazin-1-yl)-2-fluoro-3-(pyridin-2-yl)prop-2-en-1-one]	6.62
C#Cc1cccc2cccc(-c3ncc4c(N5CCCN(C(=O)/C(F)=C/c6nccs6)CC5)nc(OC[C@@]56CCCN5C[C@H](F)C6)nc4c3F)c12 [Compound 78, (Z)-1-(4-(7-(8-ethynylnaphthalen-1-yl)-8-fluoro-2-(((2R, 7aS)-2-fluorotetrahydro-1H-pyrrolizin-7a(5H)-yl)methoxy)pyrido[4,3-d]pyrimidin-4-yl)-1,4-diazepan-1-yl)-2-fluoro-3-(thiazol-2-yl)prop-2-en-1-one]	6.92
N#CC[C@H]1CN(c2nc(OC[C@@]34CCCN3C[C@H](F)C4)nc3c(F)c(-c4ccccc4C(F)(F)F)ncc23)CCN1C(=O)/C(F)=C/c1nccs1 [Example 32, 2-((S)-4-(8-fluoro-2-(((2R, 7aS)-2-fluorotetrahydro-1H-pyrrolizin-7a(5H)-yl)methoxy)-7-(2-(trifluoromethyl)phenyl)pyrido[4,3-d]pyrimidin-4-yl)-1-((Z)-2-fluoro-3-(thiazol-2-yl)acryloyl)piperazin-2-yl)acetonitrile]	7.12
2-((S)-4-(8-fluoro-2-(((S)-1-methylpyrrolidin-2-yl)methoxy)-7-(naphthalen-1-yl)pyrido[4,3-d]pyrimidin-4-yl)-1-((Z)-2-fluoro-3-(pyridin-2-yl)acryloyl)piperazin-2-yl)acetonitrile [Compound 21B]	6.48
C#Cc1c(F)ccc2cccc(-c3ncc4c(N5CCN(C(=O)/C(F)=C/c6ccccn6)CC5)nc(OC[C@@]56CCCN5C[C@H](F)C6)nc4c3F)c12 [Example 31, (Z)-1-(4-(7-(8-ethynyl-7-fluoronaphthalen-1-yl)-8-fluoro-2-(((2R, 7aS)-2-fluorotetrahydro-1H-pyrrolizin-7a(5H)-yl)methoxy)pyrido[4,3-d]pyrimidin-4-yl)piperazin-1-yl)-2-fluoro-3-(pyridin-2-yl)prop-2-en-1-one]	7.19
C#Cc1c(F)c(F)cc2cccc(-c3ncc4c(N5CCN(C(=O)/C(F)=C/c6ncccn6)CC5)nc(OC[C@@]56CCCN5C[C@H](F)C6)nc4c3F)c12 [Compound 98, (Z)-1-(4-(7-(8-ethynyl-6,7-difluoronaphthalen-1-yl)-8-fluoro-2-(((2R, 7aS)-2-fluorotetrahydro-IH-pyrrolizin-7a(5H)-yl)methoxy)pyrido[4,3-d]pyrimidin-4-yl)piperazin-1-yl)-2-fluoro-3-(pyrimidin-2-yl)prop-2-en-1-one]	7.04
C#Cc1cccc2cccc(-c3ncc4c(N(C)[C@H]5CN(C(=O)/C(F)=C/c6nccs6)C[C@H]5F)nc(OC[C@@]56CCCN5C[C@H](F)C6)nc4c3F)c12 [Compound 129, (Z)-1-((3S,4R)-3-((7-(8-ethynylnaphthalen-1-yl)-8-fluoro-2-(((2R, 7aS)-2-fluorotetrahydro-1H-pyrrolizin-7a(5H)-yl)methoxy)pyrido[4,3-d]pyrimidin-4-yl)(methyl)amino)-4-fluoropyrrolidin-1-yl)-2-fluoro-3-(thiazol-2-yl)prop-2-en-1-one]	6.70
C#Cc1cccc2cccc(-c3ncc4c(N5CC[C@@H]6CN(C(=O)/C(F)=C/c7ncccn7)C[C@@H]65)nc(OC[C@@]56CCCN5C[C@H](F)C6)nc4c3F)c12 [Compound 86, (Z)-1-((3aR, 6aR)-1-(7-(8-ethynylnaphthalen-1-yl)-8-fluoro-2-(((2R, 7aS)-2-fluorotetrahydro-1H-pyrrolizin-7a(5H)-yl)methoxy)pyrido[4,3-d]pyrimidin-4-yl)hexahydropyrrolo[3,4-b]pyrrol-5(1H)-yl)-2-fluoro-3-(pyrimidin-2-yl)prop-2-en-1-one]	6.96
C#Cc1cccc2cccc(-c3ncc4c(N5CCN(C(=O)/C(F)=C/c6ncccn6)CC5)nc(OC[C@@]56CCCN5C[C@H](F)C6)nc4c3F)c12 [Compound 123, (Z)-1-(4-(7-(8-ethynylnaphthalen-1-yl)-8-fluoro-2-(((2R, 7aS)-2-fluorotetrahydro-1H-pyrrolizin-7a(5H)-yl)methoxy)pyrido[4,3-d]pyrimidin-4-yl)piperazin-1-yl)-2-fluoro-3-(pyrimidin-2-yl)prop-2-en-1-one]	6.73
CN(c1nc(OC[C@@]23CCCN2C[C@H](F)C3)nc2c(F)c(-c3cccc4cccc(C#N)c34)ncc12)[C@@H]1CCN(C(=O)/C(F)=C/c2nccs2)C1 [Compound 114, 8-(8-fluoro-4-(((R)-1-((Z)-2-fluoro-3-(thiazol-2-yl)acryloyl)pyrrolidin-3-yl)(methyl)amino)-2-(((2R, 7aS)-2-fluorotetrahydro-1H-pyrrolizin-7a(5H)-yl)methoxy)pyrido[4,3-d]pyrimidin-7-yl)-1-naphthonitrile]	6.14

Results, then the compound that gave them:

pIC50	Compound
8.22	C#Cc1c(F)ccc2cc(O)cc(-c3ncc4c(N5CCN(C(=O)/C(F)=C/c6cnccn6)CC5)nc(OC[C@@]56CCCN5C[C@H](F)C6)nc4c3F)c12 [Example 56, (Z)-1-(4-(7-(8-ethynyl-7-fluoro-3-hydroxynaphthalen-1-yl)-8-fluoro-2-(((2R, 7aS)-2-fluorotetrahydro-1H-pyrrolizin-7a(5H)-yl)methoxy)pyrido[4,3-d]pyrimidin-4-yl)piperazin-1-yl)-2-fluoro-3-(pyrazin-2-yl)prop-2-en-1-one]
8.70	C#Cc1c(F)ccc2cc(O)cc(-c3ncc4c(N5CCN(C(=O)/C(F)=C/c6cccnn6)CC5)nc(OC[C@@]56CCCN5C[C@H](F)C6)nc4c3F)c12 [Example 55, (Z)-1-(4-(7-(8-ethynyl-7-fluoro-3-hydroxynaphthalen-1-yl)-8-fluoro-2-(((2R, 7aS)-2-fluorotetrahydro-1H-pyrrolizin-7a(5H)-yl)methoxy)pyrido[4,3-d]pyrimidin-4-yl)piperazin-1-yl)-2-fluoro-3-(pyridazin-3-yl)prop-2-en-1-one]
6.37	Cn1ncc2cccc(-c3ncc4c(N5CCN(C(=O)/C(F)=C/c6nccs6)[C@@H](CC#N)C5)nc(OC[C@@]56CCCN5C[C@H](F)C6)nc4c3F)c21 [Example 52, 2-((S)-4-(8-fluoro-2-(((2R, 7aS)-2-fluorotetrahydro-1H-pyrrolizin-7a(5H)-yl)methoxy)-7-(1-methyl-1H-indazol-7-yl)pyrido[4,3-d]pyrimidin-4-yl)-1-((Z)-2-fluoro-3-(thiazol-2-yl)acryloyl)piperazin-2-yl)acetonitrile]
6.74	N#CC[C@H]1CN(c2nc(OC[C@@]34CCCN3C[C@H](F)C4)nc3c(F)c(N4CCOc5cccc(F)c54)ncc23)CCN1C(=O)/C(F)=C/c1ccccn1 [Example 60, 2-((S)-1-((Z)-2-fluoro-3-(pyridin-2-yl)acryloyl)-4-(8-fluoro-7-(5-fluoro-2,3-dihydro-4H-benzo[b][1,4]oxazin-4-yl)-2-(((2R, 7aS)-2-fluorotetrahydro-1H-pyrrolizin-7a(5H)-yl)methoxy)pyrido[4,3-d]pyrimidin-4-yl)piperazin-2-yl)acetonitrile]
8.70	C#Cc1c(F)ccc2cc(O)cc(-c3ncc4c(N5CCN(C(=O)/C(F)=C/c6nccs6)CC5)nc(OC[C@]56CCC[C@H]5N(C)CCC6)nc4c3F)c12 [Example 58, (Z)-1-(4-(7-(8-ethynyl-7-fluoro-3-hydroxynaphthalen-1-yl)-8-fluoro-2-(((4aS, 7aR)-1-methyloctahydro-4aH-cyclopenta[b]pyridin-4a-yl)methoxy)pyrido[4,3-d]pyrimidin-4-yl)piperazin-1-yl)-2-fluoro-3-(thiazol-2-yl)prop-2-en-1-one]
6.66	(Z)-1-(4-(7-(2-amino-7-fluorobenzo[d]thiazol-4-yl)-8-fluoro-2-(((2R, 7aS)-2-fluorotetrahydro-1H-pyrrolizin-7a(5H)-yl)methoxy)pyrido[4,3-d]pyrimidin-4-yl)piperazin-1-yl)-2-fluoro-3-(thiazol-2-yl)prop-2-en-1-one [Example 68]

From US20240067662A1, “KRAS INHIBITORS” (Bristol-Myers Squibb Company, priority 2022, published 2024)
